The text below walks through data of patent US20020137152A1, “Fermentation process for epothilones” (priority 2000, published 2002).

Molecules are shown by their SMILES.

One data set deals with eukaryotic cells. The settings on record: cited from earlier work; for cytotoxic activity against eukaryotic cells: Hofle et al., 1996; for cytotoxicity relative to epothilones A and B: desoxy counterparts compared with epothilones A and B.
Data set [1] has as its system breast and colon tumor cell lines. The note with it: Hofle et al., 1996; cited from earlier work.
The next data set deals with T1, EpoK (Sorangium cellulosum, UniProt Q9KIZ4).
T1 construct: His6 (six histidine residues); made in house; host or cells: E. coli BL21(DE3) with pREP4-groELS; plasmids pKOS55-121 (N-terminal his) and pKOS55-129 (C-terminal his) in pET22b
T1 sequence (Q9KIZ4 1-419): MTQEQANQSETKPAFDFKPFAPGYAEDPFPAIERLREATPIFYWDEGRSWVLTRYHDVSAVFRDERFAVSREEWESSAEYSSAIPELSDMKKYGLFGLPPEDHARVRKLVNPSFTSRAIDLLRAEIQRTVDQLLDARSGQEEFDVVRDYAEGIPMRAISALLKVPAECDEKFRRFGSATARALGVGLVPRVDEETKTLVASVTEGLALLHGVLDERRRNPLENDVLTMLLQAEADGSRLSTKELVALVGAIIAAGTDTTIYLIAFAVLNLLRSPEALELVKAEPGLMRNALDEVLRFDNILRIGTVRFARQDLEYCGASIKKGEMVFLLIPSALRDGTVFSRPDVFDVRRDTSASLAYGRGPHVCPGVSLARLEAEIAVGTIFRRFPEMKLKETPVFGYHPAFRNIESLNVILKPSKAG
Nature of the data set: EpoK assay: conversion of epothilone D to epothilone B by recombinant his-tagged EpoK, LC/MS. The settings on record: 30° C., 67 minutes. The data set is classed as biochemical. An excerpt:
This Example describes the construction of E. coli expression vectors for heterologous expression of the Sorangium cellulosum epoK gene. The E. coli produced EpoK enzyme can be used in assays to identify inhibitors for use in the methods of the invention. The epoK gene product was expressed in E. coli as a fusion protein with a polyhistidine tag (his tag). The fusion protein was purified and used to convert epothilone D to epothilone B. This assay can be readily adapted to identify EpoK inhibitors.
Purification of EpoK was performed as follows. Plasmids pKOS55-121 and pKOS55-129 were transformed into BL21(DE3) containing the groELS expressing plasmid pREP4-groELS (Caspers et al., 1994, Cellular and Molecular Biology 40(5):635-644). The strains were inoculated into 250 mL of M9 medium supplemented with 2 mM MgSO4, 1% glucose, 20 mg thiamine, 5 mg FeCl2, 4 mg CaCl2 and 50 mg levulinic acid. The cultures were grown to an OD600 between 0.4 and 0.6, at which point IPTG was added to 1 mM, and the cultures were allowed to grow for an additional two hours. The cells were harvested and frozen at −80° C. The frozen cells were resuspended in 10 ml of buffer 1 (5 mM imidizole, 500 mM NaCl, and 45 mM Tris pH 7.6) and were lysed by sonicating three times for 15 seconds each on setting 8. The cellular debris was pelleted by centrifugation in an SS-34 rotor at 16,000 rpm for 30 minutes. The supernatant was removed and centrifuged again at 16,000 rpm for 30 minutes. The supernatant was loaded onto a 5 mL nickel column (Novagen), after which the column was washed with 50 mL of buffer 1 (Novagen). EpoK was eluted with a gradient from 5 mM to 1M imidizole. Fractions containing EpoK were pooled and dialyzed twice against 1 L of dialysis buffer (45 mM Tris pH7.6, 0.2 mM DTT, 0.1 mM EDTA, and 20% glycerol). Aliquots were frozen in liquid nitrogen and stored at −80° C. The protein preparations were greater than 90% pure.
The EpoK assay was performed as follows. Briefly, reactions consisted of 50 mM Tris (pH7.5), 21 µM spinach ferredoxin, 0.132 units of spinach ferredoxin: NADP^+oxidoreductase, 0.8 units of glucose-6-phosphate dehydrogenase, 1.4 mM NADP, and 7.1 mM glucose-6-phosphate, 100 μM or 200 ,μM epothilone D (a generous gift of S. Danishefsky), and 1.7 ,μM amino terminal his tagged EpoK or 1.6 μM carboxy terminal his-tagged EpoK in a 100 μL volume. The reactions were incubated at 30° C. for 67 minutes and stopped by heating at 90° C. for 2 minutes. The insoluble material was removed by centrifugation, and 50 μL of the supernatant were analyzed by LC/MS. […] In the presence of 200 μM, conversion was 44% and 21%, respectively.

For data set [2] the following is noted: Chou et al., 1998; cited from earlier work.
For data set [3] the following is noted: Harris et al., 1999; cited from earlier work.
In data set [4] the test system is Sorangium cellulosum strain So ce 90. Nature of the data set: Effect of metyrapone on growth of So ce 90 (FIG. 2). The data set is classed as cell-based. The settings on record: metyrapone at 5 mM and 10 mM. The procedure: To prepare a seed culture, transfer cells from the DSM 6773 ampoule into a 250 mL baffled Erleneyer flask with 38 mm silicone foam closures containing 50 mL of sterile soybean meal. Soybean meal contains potato starch (Product No. S-2004, Sigma), 8 g/L; defatted soybean meal (Type 4890, Archer Daniels Midland), 2 g/L; yeast extract (Product No. BP 1422-500, Fisher Biotech), 2g/L; Iron (III) sodium salt EDTA (Product No. EDFS, Sigma), 0.008 g/L; MgSO4.7H20 (Product No. M-5921, Sigma), 1 g/L; CaCl2.2H20 (Product No. C-3991, Sigma), 1 g/L; glucose (Product No. G-5400, Sigma), 2g/L; HEPES buffer (Product No. H-3375, Sigma), 11.5 g/L. Use deionized water, and adjust pH to 7.4 with 10% KOH. Sterilize the flasks by autoclaving at 121° C. for at least 30 minutes. After autoclaving, add 2-3 drops of antifoam B to prevent foaming. Incubate the culture at 32° C. in a 250 RPM shaker for 4 days. After 4 days, the culture should appear an orange color. […]
To extract epothilone C and/or D, transfer the culture into a 50 mL centrifuge tube (Product no. 21008-178, VWR Scientific Products). […] Quantitation of epothilones C and D was performed by HPLC analysis with UV-DAD detection at 250 nm. […] Under these conditions, epothilone C was detected at 10.3 minutes and epothilone D was detected at 13.0 minutes. […]

Data set [5] has the same test system. Nature of the data set: Production of epothilones A, B, C and D by So ce 90 fermented in the presence of a P450 inhibitor, HPLC quantitation. The data set is classed as cell-based. The settings on record: 10 mM metyrapone in production medium, 7 days. The procedure:
To prepare a seed culture, transfer cells from the DSM 6773 ampoule into a 250 mL baffled Erleneyer flask with 38 mm silicone foam closures containing 50 mL of sterile soybean meal. Soybean meal contains potato starch (Product No. S-2004, Sigma), 8 g/L; defatted soybean meal (Type 4890, Archer Daniels Midland), 2 g/L; yeast extract (Product No. BP 1422-500, Fisher Biotech), 2g/L; Iron (III) sodium salt EDTA (Product No. EDFS, Sigma), 0.008 g/L; MgSO4.7H20 (Product No. M-5921, Sigma), 1 g/L; CaCl2.2H20 (Product No. C-3991, Sigma), 1 g/L; glucose (Product No. G-5400, Sigma), 2g/L; HEPES buffer (Product No. H-3375, Sigma), 11.5 g/L. Use deionized water, and adjust pH to 7.4 with 10% KOH. Sterilize the flasks by autoclaving at 121° C. for at least 30 minutes. After autoclaving, add 2-3 drops of antifoam B to prevent foaming. Incubate the culture at 32° C. in a 250 RPM shaker for 4 days. After 4 days, the culture should appear an orange color. Production cultures were prepared by sterilizing 50 mL of sterile soybean meal medium and 1 g of Amberlite XAD-16 absorption resin in a 250 mL baffled Erlenmeyer flask. Metyrapone (Product No. 856525, Sigma) is prepared by reconstituting to a final concentration of 2.5 M with 50:50 (v/v) DMSO:H2O. Metyrapone was added to a final concentration of 5 mM and 10 mM in each flask. 5 mL of the seed culture was inoculated to each flask and incubated at 30° C. in a shaker at 250 RPM for 7 days.
To extract epothilone C and/or D, transfer the culture into a 50 mL centrifuge tube (Product no. 21008-178, VWR Scientific Products). Decant the excess medium in the centrifuge tube without pouring off any of the resin. Wash the XAD-16 resin with 25 mL of H2O and allow the XAD-16 resin to settle by gravity in the tube. Carefully decant the H2O, and add 20 mL of 100% methanol to the tube. Place the centrifuge tube on a shaker at 175 RPM for 20-30 minutes to extract the epothilone products from the resin. Allow the XAD-16 pellets to settle, and transfer 2 mL using a pipette to a HPLC tube (Product nos. C4010-13, C4010-60A, National Scientific Company). Quantitation of epothilones C and D was performed by HPLC analysis with UV-DAD detection at 250 nm. 50 uL of the methanol extract was injected across a 4.6×10 mm guard column (Inertsil, C18 OD 53, 5um) and a 4.6 x 150 mm […] (Inertisil, C18 OD 53, 5 um). The assay method was isocratic, eluting with 60% acetonitrile and 40% water for 18 minutes at a flow rate of 1 ml/min. Under these conditions, epothilone C was detected at 10.3 minutes and epothilone D was detected at 13.0 minutes. The results showing the highest production of epothilones C and D, and the lowest production of epothilones A and B, in the presence of metyrapone and various other inhibitors is shown in FIG. 1. […]

As for `C/C(=C\c1csc(C)n1)[C@@H]1C[C@@H]2O[C@@H]2CCC[C@H](C)[C@H](O)[C@@H](C)C(=O)C(C)(C)[C@@H](O)CC(=O)O1` [epothilone A], the “cytotoxic activity against eukaryotic cells” value with eukaryotic cells is reported as “broad cytotoxic activity”. Also, the “activity against breast and colon tumor cell lines” value in data set [1] is “noticeable activity and selectivity”.

For `C/C(=C\c1csc(C)n1)[C@@H]1C[C@@H]2O[C@]2(C)CCC[C@H](C)[C@H](O)[C@@H](C)C(=O)C(C)(C)[C@@H](O)CC(=O)O1` [epothilone B], the “cytotoxic activity against eukaryotic cells” value in the data set with eukaryotic cells was “broad cytotoxic activity”. Also, the “activity against breast and colon tumor cell lines” value in data set [1] was “noticeable activity and selectivity”.

For `C/C(=C\c1csc(C)n1)[C@@H]1C/C=C\CCC[C@H](C)[C@H](O)[C@@H](C)C(=O)C(C)(C)[C@@H](O)CC(=O)O1` [epothilone C], the “cytotoxicity relative to epothilones A and B” value in the data set with eukaryotic cells was “less cytotoxic”.

`C/C1=C/C[C@@H](/C(C)=C/c2csc(C)n2)OC(=O)C[C@H](O)C(C)(C)C(=O)[C@H](C)[C@@H](O)[C@@H](C)CCC1` [epothilone D]: the “conversion of epothilone D to epothilone B” value is recorded as 58% on EpoK (100 μM epothilone D, 1.6 μM carboxy terminal his-tagged EpoK); 82% on EpoK (100 μM epothilone D, 1.7 μM amino terminal his tagged EpoK); 21% on EpoK (200 μM epothilone D, 1.6 μM carboxy terminal his-tagged EpoK); 44% on EpoK (200 μM epothilone D, 1.7 μM amino terminal his tagged EpoK). In addition, the “toxicity among naturally occurring epothilones studied” value in data set [2] was “lowest toxicity”. The “efficacy among naturally occurring epothilones studied” value in data set [3] was “greatest efficacy”. The “cytotoxicity relative to epothilones A and B” value with eukaryotic cells was “less cytotoxic”.

Consider `CC(C)(C(=O)c1cccnc1)c1cccnc1` [metyrapone, 2-methyl-1,2-di-3-pyridyl-1-propanone], for which the “effect on growth of So ce 90” value in data set [4] is “does not detrimentally inhibit the growth”. The “epothilone D produced by So ce 90” value in data set [5] (without inhibitor 0.5 mg/L) is 0.1 mg/L. For the same compound, the “epothilone C produced by So ce 90” value in data set [5] (without inhibitor 1.0 mg/L) came out at 0.5 mg/L. Also, the “epothilone B produced by So ce 90” value in data set [5] (without inhibitor 1.7 mg/L) worked out at 0.3 mg/L. Also, the “epothilone A produced by So ce 90” value in data set [5] (without inhibitor 3.6 mg/L) amounted to 0.9 mg/L.
